Measurements reported in publication PMC12274739, “Differential substrate degradation by super-degron: EGFP in wild-type mouse cells, PD-1 requires CRBN humanization” (iScience, 2025).
Read-outs that look alike come from different tables or passages of the source.

Key:
EGFP-IKZF = EGFP-IKZF (UniProt P42212+Q8C7D2, F64L/H231L/INS1V/S65T); assay type: cell-based, mouse; settings: stable
EGFP-ZFP91 = EGFP-ZFP91 (UniProt P42212+Q8C7D2, F64L/H231L/INS1V/S65T); assay type: cell-based, mouse; settings: for Bottom, EGFP-ZFP91 / LogDC50, EGFP-ZFP91: stable
[1] = CrbnI391V/I391V mESCs, Figure 5E

Row | SMILES | Bottom, EGFP-IKZF (EGFP-IKZF; [1]) | LogDC50, EGFP-IKZF (EGFP-IKZF; [1]) | Bottom, EGFP-ZFP91 (EGFP-ZFP91; [1]) | LogDC50, EGFP-ZFP91 (EGFP-ZFP91; [1]) | Bottom, EGFP-IKZF (EGFP-IKZF; B6J-S1 mESCs, Figure 5B) | LogDC50, EGFP-IKZF (EGFP-IKZF; B6J-S1 mESCs, Figure 5B) | Bottom, EGFP-ZFP91 (EGFP-ZFP91; B6J-S1 mESCs, Figure 5B) | LogDC50, EGFP-ZFP91 (EGFP-ZFP91; B6J-S1 mESCs, Figure 5B) | degradation of EGFP-ZFP91 (EGFP-ZFP91; CrbnI391V/I391V mESCs)
1 | Nc1cccc2c1C(=O)N(C1CCC(=O)NC1=O)C2=O (stereo not shown) [POM, pomalidomide] | 0.1316 | -2.292 μM | 0.1492 | -2.052 μM | – | – | – | – | –
2 | O=C1CC[C@H](N2Cc3c(OCc4ccc(CN5CCOCC5)cc4)cccc3C2=O)C(=O)N1 [IBR, iberdomide] | 0.2424 | -3.194 μM | 0.1665 | -3.079 μM | 1.103 | -1.536 μM | 1.006 | -1.679 μM | efficiently degraded
